The test has as its target T1, human mPGES-1 (Homo sapiens, UniProt O14684).
T1 construct: host or cells: microsomes
T1 sequence (O14684 1-152): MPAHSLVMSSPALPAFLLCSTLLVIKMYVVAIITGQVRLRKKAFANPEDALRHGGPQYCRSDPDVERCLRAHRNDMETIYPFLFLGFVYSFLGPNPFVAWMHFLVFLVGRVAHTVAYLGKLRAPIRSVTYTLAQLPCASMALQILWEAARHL
The test can be described thus: Microsomal prostaglandin E synthase biochemical assay. As to conditions: microsome preparation containing human mPGES-1; substrate PGH2 10.8 μM, GSH 2.5 mM, pH 6.8; PGE2 by HTRF; average of at least n=2. The procedure:
Compounds were tested as inhibitors of microsomal prostaglandin E synthase activity in microsomal prostaglandin E synthase assays and whole cell assays. These assays measure prostaglandin E2 (PGE2) synthesis which is taken as a measure of prostaglandin E synthase activity. Microsomal prostaglandin E synthase biochemical assays used microsomal prostaglandin E synthase-1 in microsomal preparations. The source of the microsomes can be for example interleukin-1β-stimulated human A549 cells (which express human mPGES-1) or Sf9 cells transfected with plasmids encoding human mPGES-1 cDNA.
A solution of test compound was added to a diluted microsome preparation containing is human mPGES-1 and pre-incubated for 15 minutes in potassium phosphate buffer pH 6.8 with cofactor glutathione (GSH). Corresponding solutions without test compound were used as positive controls, and corresponding solutions without test compound and without microsomes were used as negative controls. The enzymatic reaction was then started by addition of the substrate PGH2 in an organic solution (dry acetonitrile).
The reaction was stopped after one minute by adding an acidic solution (pH 1.9) of ferric chloride and citrate (final concentrations 7 mM and 47 mM respectively), by which the PGH2 was sequestered (the PGH2 is reduced to mainly 12-hydroxy heptadecatrineoic acid (12-HHT) which is not detected by the subsequent PGE2 detection step). The resulting solution was then pH neutralized by addition of potassium phosphate buffer, prior to diluting an aliquot of the resulting solution in a weak potassium phosphate buffer (50 mM, pH 6.8) containing 0.2% BSA (w/v). […] The PGE2 formed was quantified by use of a commercial HTRF based kit (catalogue #62PG2PEC or #62P2APEC from Cisbio International). 100% activity was defined as the PGE2 production in positive controls subtracted by the PGE2 production in the negative controls. IC50 values were then determined using standard procedures.

A word on the IC50: it is the point on the concentration scale where inhibition reaches its midpoint. Read a low IC50 as inhibition by little substance. In turn, `CCCC(C)C#Cc1ccc(C(=O)NS(=O)(=O)c2ccccc2S(N)(=O)=O)cc1OCCOCC(F)(F)F` (stereo not drawn) [Example 34, 4-(3-Methylhex-1-ynyl)-N-(2-sulfamoylphenylsulfonyl)-3-(2-(2,2,2-trifluoroethoxy)ethoxy)benzamide] yielded a half-maximal inhibitory concentration (IC50) of 12 nM. That is a double-digit nanomolar value. Under `CCCC(C)C#Cc1ccc(C(=O)NS(=O)(=O)c2ccccc2S(N)(=O)=O)cc1OCCC(F)(F)F` (stereo not drawn) [Example 35, 4-(3-Methylhex-1-ynyl)-N-(2-sulfamoylphenylsulfonyl)-3-(3,3,3-trifluoropropoxy)benzamide] stands 14 nM; under `NS(=O)(=O)c1ccccc1S(=O)(=O)NC(=O)c1ccc(C#CC(C2CC2)C2CC2)c(OCCC(F)(F)F)c1` [Example 36, 4-(3,3-Dicyclopropylprop-1-ynyl)-N-(2-sulfamoylphenylsulfonyl)-3-(3,3,3-trifluoropropoxy)benzamide], 18 nM.

`CCCC(C)C#Cc1ccc(C(=O)NS(=O)(=O)c2ccccc2S(N)(=O)=O)cc1OC` (stereo not drawn) [Example 37, 3-Methoxy-4-(3-methylhex-1-ynyl)-N-(2-sulfamoylphenylsulfonyl)benzamide] displayed an IC50 of 35 nM. The figure for `COc1cc(C(=O)NS(=O)(=O)c2ccccc2S(N)(=O)=O)ccc1C#Cc1ccc(C(F)(F)F)cc1` [Example 38, 3-Methoxy-N-(2-sulfamoylphenylsulfonyl)-4-((4-(trifluoromethyl)phenyl)ethynyl)benzamide] is 7.3 nM; for `NS(=O)(=O)c1ccccc1S(=O)(=O)NC(=O)c1ccc(C#Cc2ccc(C(F)(F)F)cc2)c(CO)c1` [Example 39, 3-(Hydroxymethyl)-N-(2-sulfamoylphenylsulfonyl)-4-((4-(trifluoromethyl)phenyl)ethynyl)benzamide] it is 22 nM.

In turn, `CCCC(C)C#Cc1ccc(C(=O)NS(=O)(=O)c2ccccc2S(N)(=O)=O)cc1` (stereo not drawn) [Example 40, 4-(3-Methylhex-1-ynyl)-N-(2-sulfamoylphenylsulfonyl)benzamide] had a half-inhibitory concentration (IC50) of 14 nM. This IC50 lies about 1.6-fold lower than the previous one.

As to `NS(=O)(=O)c1ccccc1S(=O)(=O)NC(=O)c1ccc(C#Cc2ccc(C(F)(F)F)cc2)cc1` [Example 41, N-(2-Sulfamoylphenylsulfonyl)-4-((4-(trifluoromethyl)phenyl)ethynyl)benzamide], the IC50 turned out to be 5.7 nM. As for `NS(=O)(=O)c1ccccc1S(=O)(=O)NC(=O)c1ccc(C#CCCCCCl)cc1` [Example 42, 4-(6-Chlorohex-1-ynyl)-N-(2-sulfamoylphenylsulfonyl)benzamide], the IC50 was found to be 37 nM. The figure for `NS(=O)(=O)c1ccccc1S(=O)(=O)NC(=O)c1ccc(C#Cc2ccc(C(F)(F)F)cc2)nc1` [Example 43] is 6.5 nM; for `CC(C)C#Cc1ncc(C(=O)NS(=O)(=O)c2ccccc2S(N)(=O)=O)cc1Cl` [Example 44, 5-Chloro-6-(3-methylbut-1-ynyl)-N-(2-sulfamoylphenylsulfonyl)nicotinamide] it is 59 nM; for `CC(C)C#Cc1ccc(C(=O)NS(=O)(=O)c2ccccc2S(N)(=O)=O)cc1OCCC(F)(F)F` [Example 45, 4-(3-Methylbut-1-ynyl)-N-(2-sulfamoylphenylsulfonyl)-3-(3,3,3-trifluoropropoxy)benzamide] it is 18 nM.

`CC(C)C#Cc1ncc(C(=O)NS(=O)(=O)c2ccccc2S(N)(=O)=O)cc1F` [Example 46, 5-Fluoro-6-(3-methylbut-1-ynyl)-N-(2-sulfamoylphenylsulfonyl)nicotinamide] gave a concentration for half-maximal inhibition (IC50) of 200 nM. Under `NS(=O)(=O)c1ccccc1S(=O)(=O)NC(=O)c1cnc(C#Cc2ccc(C(F)(F)F)cc2)c(F)c1` [Example 47, 5-Fluoro-N-(2-sulfamoylphenylsulfonyl)-6-((4-(trifluoromethyl)phenyl)ethynyl)nicotinamide] stands 6.5 nM. Under `NS(=O)(=O)c1ccccc1S(=O)(=O)NC(=O)c1cnc(C#Cc2ccc(C(F)(F)F)cc2)c(OCCC(F)(F)F)c1` [Example 48] stands 10 nM.

The values are drawn from US20100292279A1, “Bis-(Sulfonylamino) Derivatives in Therapy” (ASTRAZENECA AB, priority 2009, published 2010).
